Test [1] has as its system trimethylation level of histone H3K27 in G401 cells. The test can be described thus: ELISA (H3K27 trimethylation) analysis in G401 cells. The test is classed as cell-based. As to conditions: Homo sapiens, G-401, 72 hours, H3K27me3 standardized to H3. On the procedure: 3-fold series dilution with DMSO was carried out on the representative compounds of the present disclosure; and 10 concentration gradients were detected for each compound, with the highest detection concentration of 10 μM. The compounds were diluted 200-fold into the G401 cells cultured in a 96-well plate (DMSO at a final concentration of 0.5%). After the cells, administered with the compound, were cultured for 72 hours, the trimethylation level of the histone H3K27 was detected using the ELISA method.
Extraction of the histone: in a 96-well plate, the compound-treated cells were washed three times with 1×PBS (10×PBS buffer (80 g NaCl (Sigma, product number S3014), 2 g KCl (Sigma, product number 60128), 14.4 g Na2HPO4 (Sigma, product number S5136), and 2.4 g KH2PO4 (Sigma, product number P9791) in 1 L of water, adjusting the pH to 7.4)). 100 μL of 0.4 N HCl was added into each well. The plate was placed at 4° C. and gently agitated for 2 hours to lyse the cells. The cell lysate was then neutralized with 80 μL of neutralization buffer (0.5 M disodium hydrogen phosphate, pH 12.5, 2.5 mM DTT; 1% cocktail (Sigma, product number P8340)) (the cell lysate and the neutralization buffer were thoroughly mixed to uniformity).
ELISA detection method: the cell lysate was transferred in parallel to two 384-well detection plates (PerkinElmer, OptiPlate-384HB, product number 6007290), wherein one of the plates was used to detect the H3K27 trimethylation level and the other plate was used to determine the level of H3. PBS was used to adjust the final volume to 50 μL/well. The plates were coated at 4° C. overnight. On the following day, the solution inside the wells was discarded and the plates were washed 5 times with TBST buffer (1×TBS (10×TBS: 24.2 g Tris (Sigma, product number T6066), 80 g NaCl (Sigma, product number S3014) in 1 L of water, adjusting the pH with HCl to 7.6), 0.1% Tween-20) and dried on an absorbent paper by inversion. 70 μL of blocking buffer (TBST, 5% BSA) was added into the coated reaction wells and the plates were incubated at room temperature for 1 hour. The blocking buffer was discarded and primary antibodies were added (30 μL/well). The desired primary antibodies were all diluted with a blocking buffer and the dilution factor was as follows: anti-H3K27me3 antibody (Cell Signaling Technology, product number 9733), 1:2000 dilution; anti-H3 antibody (Cell Signaling Technology, product number 4499), 1:10000 dilution. After the primary antibodies were added, the plates were placed at room temperature and incubated for 1 hour. After the plates were washed with TBST 5 times, the plates were dried by inversion. A secondary antibody (30 μL/well) was added to each of the reaction wells and the plates were incubated at room temperature for 1 hour. The secondary antibody (anti-rabbit antibody (Jackson ImmunoResearch, product number 111-035-003)) was diluted 2000-fold with a blocking buffer before use. After 1 hour, the plates were washed with TBST and dried by inversion. 30 μL of ECL substrate (Pierce, product number 34080) was added into each well and centrifuged at 2000 rpm for 30 seconds. The signal of each sample was detected using SpectraMax (Molecular Devices). Data processing: H3K27 methylation readings were first standardlized using H3 signals and 0.5% DMSO-treated samples was used as the control to calculate the inhibition percentage of the compounds. Data were fit to obtain Dose-Response curves using the GraphPad prism 5 program and the IC50 values of the test compounds were obtained.
On the technique in general: An ELISA detects its analyte on a solid surface through an enzyme-linked reagent.

Another test concerns KARPAS-422 cells. Put plainly: Cell proliferation analysis, KARPAS-422, 13 days, CellTiter-Glo. The format is cell-based. As to conditions: Homo sapiens, 312 h. As to the method:
Human B-cell non-Hodgkin lymphoma cells, KARPAS-422 S, were cultured in a culture flask using standard cell culture conditions. The medium contained 15% fetal bovine serum (FBS, Invitrogen, product number 10099-141) and 1% penicillin/streptomycin solution (P/S) RPMI-1640 (Invitrogen, product number 11875), and the culture flask was placed and cultured in a sterile incubator at the temperature of 37° C. and […] with a relative humidity of […] To detect the effect of PRC2 inhibitors on cell proliferation, cells in exponential growth phase were taken and seeded into a 96-well plate (Corning, product number 3904) at a density of 1×10^4 cells/well, and 100 μL of the medium was added into each well. Subsequently, the compounds at different concentrations disclosed in the present disclosure were added into the wells where cells had already been seeded (9 concentration gradients were provided for each compound, with the highest detection concentration at 10 μM, 3-fold gradient dilution) and two replicates in parallel were provided for each treatment concentration. DMSO was at a final concentration of 0.5%. Afterwards, viable cell numbers were determined using Vi-CELL (Beckman Coulter) every 3-4 days. Cells counted were seeded into a new 96-well plate at the same density (1×10^4 cells/well) each time. The wells were supplemented with a fresh medium to 100 μL and at the same time, compounds at different concentrations were added. The cells were cultured to day 13. 100 μL of CellTiter-Glo (CellTiter-GloCellTiter-GloCellTiter-GloCTG) (Promega, product number G7573) was added into each well. The plate was placed in the dark at room temperature for 10-20 minutes and the luminescence signal was read using SpectraMax i3× (Molecular Devices).
For orientation: ATP-based viability assays read luminescence as a measure of living cells.

SMILES strings stand for the structures.

In general, IC50 refers to the concentration needed to halve the response being measured. High values mean a need for much substance, low ones inhibition by little substance.

`CC1CN(c2ccc(-c3cnc(NCc4c(F)ccc5c4CCO5)n4cnnc34)c3ncnn23)CCO1` (stereo not shown) [N-((5-fluoro-2,3-dihydrobenzofuran-4-yl)methyl)-8-(5-(2-methylmorpholino)-[1,2,4]triazolo[1,5-a]pyridin-8-yl)-[1,2,4]triazolo[4,3-c]pyrimidin-5-amine]: the figures for the IC50 (in test [1]; with KARPAS-422 cells) were 0.0008 µM and 0.0005 µM, respectively.

As to `CC(=O)NCc1cnc2c(-c3cnc(NCc4c(F)ccc5c4CCO5)n4cnnc34)ccc(C)n12` [N-((8-(5-(((5-fluoro-2,3-dihydrobenzofuran-4-yl)methyl)amino)-[1,2,4]triazolo[4,3-c]pyrimidin-8-yl)-5-methylimidazo[1,2-a]pyridin-3-yl)methyl)acetamide], the IC50 in test [1] turned out to be 0.0024 µM; in the test on KARPAS-422 cells it was 0.0032 µM.

For the compound `NC(=O)c1cnc2c(-c3cnc(NCc4c(F)ccc5c4CCO5)n4cnnc34)cc(F)cn12` [6-fluoro-8-(5-(((5-fluoro-2,3-dihydrobenzofuran-4-yl)methyl)amino)-[1,2,4]triazolo[4,3-c]pyrimidin-8-yl)imidazo[1,2-a]pyridine-3-carboxamide], the IC50 in test [1] was 0.0134 µM; in the test with KARPAS-422 cells, 0.0046 µM.

As to `CN(C)c1ccc(-c2cnc(NCc3c(F)ccc4c3CCO4)n3cnnc23)c2ncnn12` [8-(5-(dimethylamino)-[1,2,4]triazolo[1,5-a]pyridin-8-yl)-N-((5-fluoro-2,3-dihydrobenzofuran-4-yl)methyl)-[1,2,4]triazolo[4,3-c]pyrimidin-5-amine], the results for the IC50 (in test [1]; in the test on KARPAS-422 cells) were 0.001 µM and 0.0014 µM, respectively.

In the case of `Cc1ccc(-c2cnc(NCc3c(F)ccc4c3CCO4)n3cnnc23)c2ncc(C#N)n12` [8-(5-(((5-fluoro-2,3-dihydrobenzofuran-4-yl)methyl)amino)-[1,2,4]triazolo[4,3-c]pyrimidin-8-yl)-5-methylimidazo[1,2-a]pyridine-3-carbonitrile], the IC50 is 0.0052 µM in test [1] and 0.003 µM in the test with KARPAS-422 cells.

For the compound `Cc1nc2c(-c3cnc(NCc4c(F)ccc5c4CCO5)n4cnnc34)ccc(C)n2n1` [8-(2,5-dimethyl-[1,2,4]triazolo[1,5-a]pyridin-8-yl)-N-((5-fluoro-2,3-dihydrobenzofuran-4-yl)methyl)-[1,2,4]triazolo[4,3-c]pyrimidin-5-amine], the IC50 (in test [1]; in the test with KARPAS-422 cells) was 0.0013 µM in each case.

On to `Fc1ccc2c(c1CNc1ncc(-c3ccc(N4CCOCC4)n4ncnc34)c3nncn13)CCO2` [N-((5-fluoro-2,3-dihydrobenzofuran-4-yl)methyl)-8-(5-morpholino-[1,2,4]triazolo[1,5-a]pyridin-8-yl)-[1,2,4]triazolo[4,3-c]pyrimidin-5-amine], for which the IC50 in test [1] is 0.0011 µM; with KARPAS-422 cells it was 0.0007 µM.

`COc1cc(-c2cnc(NCc3c(F)ccc4c3CCO4)n3cnnc23)c2ncc(C#N)n2c1` [8-(5-(((5-fluoro-2,3-dihydrobenzofuran-4-yl)methyl)amino)-[1,2,4]triazolo[4,3-c]pyrimidin-8-yl)-6-methoxyimidazo[1,2-a]pyridine-3-carbonitrile]: the IC50 in test [1] came out at 0.0042 µM; with KARPAS-422 cells, 0.0045 µM.

On to `COc1ccc(-c2cnc(NCc3c(F)ccc4c3CCO4)n3cnnc23)c2ncnn12` [N-((5-fluoro-2,3-dihydrobenzofuran-4-yl)methyl)-8-(5-methoxy-[1,2,4]triazolo[1,5-a]pyridin-8-yl)-[1,2,4]triazolo[4,3-c]pyrimidin-5-amine], for which the IC50 in test [1] turned out to be 0.0032 µM; in the test on KARPAS-422 cells, 0.0011 µM.

As to `CN(C)c1c(F)cc(-c2cnc(NCc3c(F)ccc4c3CCO4)n3cnnc23)c2ncnn12` [8-(5-(dimethylamino)-6-fluoro-[1,2,4]triazolo[1,5-a]pyridin-8-yl)-N-((5-fluoro-2,3-dihydrobenzofuran-4-yl)methyl)-[1,2,4]triazolo[4,3-c]pyrimidin-5-amine], the IC50 in test [1] worked out at 0.0028 µM.

As to `CN(C)c1ncc(-c2cnc(NCc3c(F)ccc4c3CCO4)n3cnnc23)c2ncnn12` [8-(5-(dimethylamino)-[1,2,4]triazolo[1,5-c]pyrimidin-8-yl)-N-((5-fluoro-2,3-dihydrobenzofuran-4-yl)methyl)-[1,2,4]triazolo[4,3-c]pyrimidin-5-amine], in test [1], 0.0018 µM corresponded to half-maximal inhibition (IC50).

`Fc1ccc2c(c1CNc1ncc(-c3ccc(C(F)F)n4ncnc34)c3nncn13)CCO2` [8-(5-(difluoromethyl)-[1,2,4]triazolo[1,5-a]pyridin-8-yl)-N-((5-fluoro-2,3-dihydrobenzofuran-4-yl)methyl)-[1,2,4]triazolo[4,3-c]pyrimidin-5-amine] yielded an IC50 in test [1] of 0.0055 µM. Against the preceding compound, the IC50 is about 3.1-fold higher.

Regarding `CP(C)(=O)c1cnc2c(-c3cnc(NCc4c(F)ccc5c4CCO5)n4cnnc34)cc(F)cn12` [(6-fluoro-8-(5-(((5-fluoro-2,3-dihydrobenzofuran-4-yl)methyl)amino)-[1,2,4]triazolo[4,3-c]pyrimidin-8-yl)imidazo[1,2-a]pyridin-3-yl)dimethylphosphine oxide], in test [1], the IC50 worked out at 0.0023 µM.

As to `CCOC(=O)c1cnc2c(-c3cnc(NCc4c(F)ccc5c4CCO5)n4cnnc34)ccc(C)n12` [Ethyl 8-(5-(((5-fluoro-2,3-dihydrobenzofuran-4-yl)methyl)amino)-[1,2,4]triazolo[4,3-c]pyrimidin-8-yl)-5-methylimidazo[1,2-a]pyridine-3-carboxylate], 0.0047 µM corresponded to half-maximal inhibition in the test with KARPAS-422 cells (IC50).

As for `N#Cc1cc(-c2cnc(NCc3c(F)ccc4c3CCO4)n3cnnc23)c2ncnn2c1` [8-(5-(((5-fluoro-2,3-dihydrobenzofuran-4-yl)methyl)amino)-[1,2,4]triazolo[4,3-c]pyrimidin-8-yl)-[1,2,4]triazolo[1,5-a]pyridine-6-carbonitrile], inhibition in test [1] was half-maximal at 0.0143 µM (IC50).

The compound `Cc1nc2c(-c3cnc(NCc4c(F)ccc5c4CCO5)n4cnnc34)ccc(N(C)C)n2n1` [8-(5-(dimethylamino)-2-methyl-[1,2,4]triazolo[1,5-a]pyridin-8-yl)-N-((5-fluoro-2,3-dihydrobenzofuran-4-yl)methyl)-[1,2,4]triazolo[4,3-c]pyrimidin-5-amine] came in with an IC50 in test [1] of 0.0006 µM.

In test [1], `Cc1ccc(-c2cnc(NCc3c(F)ccc4c3CCO4)n3cnnc23)c2ncc(S(C)(=O)=O)n12` [N-((5-fluoro-2,3-dihydrobenzofuran-4-yl)methyl)-8-(5-methyl-3-(methylsulfonyl)imidazo[1,2-a]pyridin-8-yl)-[1,2,4]triazolo[4,3-c]pyrimidin-5-amine] showed an IC50 of 0.088 µM.

In the case of `Cc1ccc(-c2cnc(NCc3c(F)ccc4c3CCO4)n3cnnc23)c2nnc(C)n12`, the midpoint of inhibition in test [1], the IC50, lay at 0.0008 µM. Compared with the last compound, the IC50 is about 110-fold lower.

Regarding `CN(C)c1ccc(-c2cnc(NCc3c(F)ccc4c3CCO4)n3cnnc23)c2nncn12` [8-(5-(dimethylamino)-[1,2,4]triazolo[4,3-a]pyridin-8-yl)-N-((5-fluoro-2,3-dihydrobenzofuran-4-yl)methyl)-[1,2,4]triazolo[4,3-c]pyrimidin-5-amine], half-maximal inhibition in test [1] (IC50) required 0.0078 µM.

Source of the values: patent US12583870B2, “Azaheteroaryl compound and application thereof” (SHANGHAI BLUERAY BIOPHARMA CO., LTD., priority 2019, dated 2026).
